In patent publication US10258658B2, “Compositions and methods for improved muscle metabolism” (Naturex SA, priority 2015, dated 2019):
Marks after values point to notes of the source that are not given here.

What was measured:
[1] = system: Akt phosphorylation on threonine 308; experiment: Akt phosphorylation on threonine 308 in C2C12 myotubes (ELISA); assay type: cell-based, mice; conditions: 100 ng/mL, 2 h
Experimental: (§1) Growing cells were harvested and plated at a density of 170 000 cells per well in a 6 well plate. Cells were grown for 48 h in 5% CO2 at 37° C. After cells reached 80% confluence, the medium was replaced with differentiating medium (DMEM+2% FBS). After 5 days, myoblasts were fused into multinucleated myotubes. 1 h before starting the experiment, cells were incubated in Krebs medium to deprived cells of amino acids.
(§2) Cells were treated with five preparations of Rhaponticum plant extract at 3 concentrations in the presence of normal (0.8 mM) or low (0.08 mM) concentration of amino acids and with DMSO 0.002% for 2 h.
(§3) At the end of the experiment, cells were lysed in cell lysate buffer (100 μL per well) and centrifuged to isolate the soluble protein in supernatant. Proteins from this cellular assay were quantified using a colorimetric assay derived from LOWRY method. Therefore, 50 μg of total protein in 100 μL lysis buffer were transferred into microwell strips coated with pS6K1 or pAkt antibody and incubated 2 h at 37° C. […] Intensity of the yellow color was readable on a spectrophotometer at 450 nm and directly proportional to pS6K1 or Akt amount detected.
Results of phosphorylated Akt is expressed in absorbance per μg of protein (Abs/μg protein) after 2 hrs incubation and in % of untreated control condition (100%). […]

C2C12 myotubes [2] = conditions: low or normal concentration of amino acids; literature (Kazi, Broussard); cited from earlier work
[3] = system: myostatin gene expression; experiment: Myostatin gene expression in C2C12 myotubes (qPCR); assay type: cell-based, mice
Experimental: (§4) For the gene expression assay, growing cells were harvested and plated at a density of 30 000 cells per well in a 24 well plate. Cells were grown for 48 h in 5% CO2 at 37° C. After cells reached 80% confluence, the medium was replaced with differentiating medium (DMEM+2% FBS). After 5 days, myoblasts were fused into multinucleated myotubes.
(§5) Cells were treated with F0 extract at 1 and 10 μg/ml, or Rhodiola extract at 1 and 10 μg/ml or combination of F0 with Rhodiola at different concentrations, for 6 h. At the end of the experiment, C2C12 cells were lyzed in trizol solution and RNA was extracted and purified using the phenol/chloroform method. RNA amount after extraction was quantified by spectrophotometer (260 nm/280 nm/320 nm) and suspended at a final concentration of 1 μg/1 μL. […]
FIGS. 23a, 23b, 24a, and 24b: Effect of co-incubation of Rhaponticum F0 and Rhodiola extracts on myostatin gene expression in C2C12 myotubes. […] At the end of the incubation cells were lysed and RNA was extracted, converted into cDNA to perform a quantitative PCR. […]

[4] = system: S6K1 phosphorylation on threonine 389; experiment: S6K1 phosphorylation on threonine 389 in C2C12 myotubes (ELISA); assay type: cell-based, mice; conditions: LOW AMINO ACID (0.08 mM), Step 1; 100 ng/mL; 2 h; % of untreated control
Experimental: as §1, §2, §3
Results of phosphorylated T389 S6 kinase1 is expressed in absorbance per μg of protein (Abs/μg protein) after 2 hrs incubation and in % of untreated control condition (100%). […]

C2C12 myotubes [5] = experiment: Protein synthesis (tritiated leucine incorporation) in C2C12 myotubes; assay type: cell-based, mice; conditions: 100 ng/mL
Experimental: For the protein synthesis assay, growing cells were harvested and plated at a density of 30 000 cells per well in a 24 well plate. Cells were grown for 48 h in 5% CO2 at 37° C. After cells reached 80% confluence, the medium was replaced with differentiating medium (DMEM+2% FBS). After 5 days, myoblasts were fused into multinucleated myotubes. Protein synthesis was determined by measuring the incorporation of the tritiated amino acid leucine. Briefly, 1 h prior leucine challenge, cells were incubated in amino acid free-medium. Then cells were incubated for 2 h30 in the presence of: radiolabelled leucine 5 μCi/mL and IGF1 100 ng/mL or plant extract in the presence of normal (0.8 mM) or low (0.08 mM) concentration of amino acids and with DMSO 0.002%
Five different preparations of Rhaponticum extract at three concentrations were incubated for 2 h30 in the presence of differentiated C2C12 myotubes and tritiated leucine (5 μCi). At the end of the incubation cells were lysed, total soluble proteins were quantified and level of tritiated leucine incorporated into cells was counted. Mean±SEM. *p<0.05; **p<0.01; ***p<0.001 vs control value.
For this study, C2C12 cells were obtained as described in EXAMPLE 12. Protein synthesis assay was performed as described in EXAMPLE 13, except that radiolabelled leucine 5 μCi/mL and IGF1 100 ng/mL, F0 extract at 1, 5 and 10 μg/ml or Rhodiola extract at 10, 104 and 417 μg/ml in the presence of normal (0.8 mM) concentration of amino acids and with DMSO 0.005% were used.
For this study, C2C12 cells were obtained as described in EXAMPLE 12. Protein synthesis assay was performed as described in EXAMPLE 13, except that radiolabelled leucine 5 μCi/mL and IGF1 100 ng/mL, F0 extract at 1 and 10 μg/ml, or Rhodiola extract at 1 and 10 μg/ml or combination of F0 with Rhodiola at different concentrations in the presence of normal (0.8 mM) concentration of amino acids and with DMSO 0.005% was used.
The C2C12 skeletal muscle cells were obtained as in EXAMPLE 12. The protein synthesis assay was performed as in EXAMPLE 13 and 14 except that radiolabelled leucine 5 μCi/mL and IGF1 100 ng/mL, F0 extract at 11.4 and 22.9 μg/ml, or F0 dry extract at 6.5 and 13 μg/ml or F1 extract at 13.4 and 26.7 μg/ml or F5′ extract at 1 and 1.9 μg/ml in the presence of normal (0.8 mM) concentration of amino acids and with DMSO 0.005%. At the end of the experiments supernatants were discarded and cells were lysed in 0.1N sodium hydroxide for 30 min. The cell soluble fraction-associated radioactivity was then counted and protein quantification was determined using the coloric Lowry method.
Each condition is tested in n=6. IGF1 100 ng/ml is used as a positive control of the protein synthesis stimulation and signaling. Results of protein synthesis are expressed in cpm/μL/2.5 hrs and in % of untreated control condition (100%).

atrogin gene expression [6] = experiment: Atrogin gene expression in C2C12 myotubes (qPCR); assay type: cell-based, mice; conditions: positive control in this experiment
Experimental: as §4, §5
Combination of Rhaponticum F0 and Rhodiola extracts at two different concentrations each were incubated for 6 h in the presence of differentiated C2C12 myotubes. At the end of the incubation cells were lysed and RNA was extracted, converted into cDNA to perform a quantitative PCR. […]

atrogin gene expression [7] = conditions: 24 h incubation, 10 ng/mL; literature (Latres, Stitt); cited from earlier work

In the case of Insulin like growth factor-1 [IGF-1], the “Akt phosphorylation activated by a factor” value [1] is listed as 1.6, the “increase in protein synthesis” value (C2C12 myotubes [2]) is listed as 20-50% and the “inhibitory effect on myostatin gene expression” value ([3]; internal data) is listed as 20-40%. The “change in myostatin gene expression vs control” value ([3]; positive control in this experiment) was −25%, the pS6K [4] was 479%** and the protein synthesis (C2C12 myotubes [5]; LOW AMINO ACID (0.08 mM), Step 1, 2 h30, % of untreated control) was 145%**. For the same substance, the “induction of protein synthesis vs untreated control” value (“induction … vs untreated control” below) (C2C12 myotubes [5]; step 1, low (0.08 mM) amino acids, DMSO 0.002%) was “+45%”, the “induction … vs untreated control” value (C2C12 myotubes [5]; step 1, normal (0.8 mM) amino acids, DMSO 0.002%) was “+21%” and the “induction … vs untreated control” value (C2C12 myotubes [5]; step 2a, normal (0.8 mM) amino acids, DMSO 0.005%) was “+27%”. The “induction … vs untreated control” value (C2C12 myotubes [5]; step 3, normal (0.8 mM) amino acids, DMSO 0.005%) was “+25%”, the “change in atrogin gene expression vs control” value (atrogin gene expression [6]) was −59% and the “inhibition of atrogin gene expression” value (atrogin gene expression [7]) was “around 40%”.
